Where a name gives a salt, the structure may show the parent alone.
How the values were obtained:
[1] = target: T1, human β3 adrenergic receptor (Homo sapiens, UniProt P13945); assay: cAMP (SPA) response in CHO cells transfected with human β3 adrenergic receptor; type: cell-based; parameters: key: fraction of maximal isoproterenol (10^-5 M) response; settings: maximal response relative to maximal response of isoproterenol at 10^-5 M
T1 construct: Full length β3 AR clones (402 amino acids) containing the last 6 amino acids of hβ3-AR are prepared; expressed in transfected cells; host or cells: CHO (Chinese hamster ovary) cells
T1 sequence (P13945 whole entry): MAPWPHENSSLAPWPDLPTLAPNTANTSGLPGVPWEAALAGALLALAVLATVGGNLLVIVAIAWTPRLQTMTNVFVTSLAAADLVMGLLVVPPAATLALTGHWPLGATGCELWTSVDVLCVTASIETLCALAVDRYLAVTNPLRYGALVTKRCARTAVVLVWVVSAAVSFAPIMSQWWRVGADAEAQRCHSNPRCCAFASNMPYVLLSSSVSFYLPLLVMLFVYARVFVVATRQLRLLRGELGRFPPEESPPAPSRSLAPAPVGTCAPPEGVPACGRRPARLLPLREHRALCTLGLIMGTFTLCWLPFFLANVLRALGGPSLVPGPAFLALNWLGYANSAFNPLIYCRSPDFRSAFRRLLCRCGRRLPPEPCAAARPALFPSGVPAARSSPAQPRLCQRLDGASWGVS
Outline: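 Reactions were stopped with 0.2N HCl and neutralised, and cAMP was measured by SPA. Activity is expressed as percent of the maximal 10^−5 M isoproterenol response.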

melting point | IA(β3) [1] | Structure (SMILES)
> 177 °C (dec.) |  | CC(C)C[C@H](NC(=O)c1ccc(N2CCC(NC[C@H](O)c3ccc(O)c(NS(C)(=O)=O)c3)CC2)cc1)C(=O)O (as salt: sodium) [Example 199, (2S)-2-(4-{4-[(2R)-2-Hydroxy-2-(4-hydroxy-3-methanesulfonylamino-phenyl)-ethylamino]-piperidin-1-yl}-benzoylamino)-4-methyl-pentanoic acid]
> 220 °C (dec.) |  | CS(=O)(=O)Nc1cc([C@@H](O)CNC2CCN(c3ccc(C(=O)N4CCC[C@H]4C(=O)O)cc3)CC2)ccc1O (as salt: sodium) [Example 201, 1-(4-{4-[(2R)-2-Hydroxy-2-(4-hydroxy-3-methanesulfonylamino-phenyl)-ethylamino]-piperidin-1-yl}-benzoyl)-pyrrolidine-(2S)-2-carboxylic acid]
> 135 °C (dec.) |  | CC(C)[C@H](NC(=O)c1ccc(N2CCC(NC[C@H](O)c3ccc(O)c(NS(C)(=O)=O)c3)CC2)cc1)C(=O)O (as salt: sodium) [Example 203, (2S)-2-(4-{4-[(2R)-2-Hydroxy-2-(4-hydroxy-3-methanesulfonylamino-phenyl)-ethylamino]-piperidin-1-yl}-benzoylamino)-3-methyl-butyric acid]
> 160 °C (dec.) |  | CS(=O)(=O)Nc1cc([C@@H](O)CNC2CCN(c3ccc(C(=O)N[C@@H](Cc4ccccc4)C(=O)O)cc3)CC2)ccc1O (as salt: sodium) [Example 205, (2S)-2-(4-{4-[(2R)-2-Hydroxy-2-(4-hydroxy-3-methanesulfonylamino-phenyl)-ethylamino]-piperidin-1-yl}-benzoylamino)-3-phenyl-propionic acid]
130 to 132 °C | 1 | CC(C)(C)OC(=O)CN1C(=O)SC(Cc2ccc(N3CCC(NC[C@H](O)c4ccc(O)c(NS(C)(=O)=O)c4)CC3)cc2)C1=O (stereo partly drawn) [Example 64, 5-[[4-[4-[[(R)-2-Hydroxy-2-[4-hydroxy-3-[(methylsulfonyl)amino]phenyl]ethyl]amino]-1-piperidinyl]phenyl]methyl]-2,4-dioxo-3-thiazolidineacetic acid tert-butyl-ester]
153 to 155 °C | 0.81 | CCOC(=O)CN1C(=O)SC(Cc2ccc(N3CCC(NC[C@H](O)c4ccc(O)c(NS(C)(=O)=O)c4)CC3)cc2)C1=O (stereo partly drawn) [Example 66, 5-[[4-[4-[[(R)-2-Hydroxy-2-[4-hydroxy-3-[(methylsulfonyl)amino]phenyl]ethyl]amino]-1-piperidinyl]phenyl]methyl]-2,4-dioxo-3-thiazolidineacetic acid ethyl-ester]
162 to 164 °C | 1 | O=C1NC(=O)C(=Cc2ccc(N3CCC(NC[C@H](O)COc4cccc5[nH]c(=O)[nH]c45)CC3)c(F)c2)S1 [Example 69, 5-(3-Fluoro-4-{4-[(2S)-2-hydroxy-3-(2-oxo-2,3-dihydro-1H-benzoimidazol-4-yloxy)-propylamino]-piperidin-1-yl}-benzylidene)-thiazolidine-2,4-dione]
> 200 °C | 1.2 | CS(=O)(=O)Nc1cc(C(O)CNC2CCN(c3ccc(C=C4SC(=O)NC4=O)cc3Br)CC2)ccc1O (stereo not drawn) [Example 70, N-[5-(2-{1-[2-Bromo-4-(2,4-dioxo-thiazolidin-5-ylidenemethyl)-phenyl]-piperidin-4-ylamino}-1-hydroxy-ethyl)-2-hydroxy-phenyl]-methanesulfonamide]
> 225 °C | 1.2 | CS(=O)(=O)Nc1cc(C(O)CNC2CCN(c3ccc(C=C4SC(=O)NC4=O)cc3F)CC2)ccc1O (stereo not drawn) [Example 71, N-[5-(2-{1-[4-(2,4-Dioxo-thiazolidin-5-ylidenemethyl)-2-fluoro-phenyl]-piperidin-4-ylamino}-1-hydroxy-ethyl)-2-hydroxy-phenyl]-methanesulfonamide]
> 220 °C (dec.) | 0.68 | O=C1NC(=S)SC1=Cc1ccc(N2CCC(NC[C@H](O)COc3ccccc3)CC2)cc1 [Example 72, 5-{4-[4-((2S)-2-Hydroxy-3-phenoxy-propylamino)-piperidin-1-yl]-benzylidene}-2-thioxo-thiazolidin-4-one]
218 to 220 °C | 0.71 | O=C1NC(=O)C(Cc2ccc(N3CCC(NC[C@H](O)COc4ccccc4)CC3)cc2)S1 (stereo partly drawn) [Example 73, 5-[4-[4-((2S)-2-Hydroxy-3-phenoxy-propylamino)-piperidin-1-yl]-benzyl}-thiazolidin-2,4-dione]
> 70 °C (dec.) | 0.23 | O=C1NC(=O)C(Cc2ccc(N3CCC(NCC(O)COc4ccc(OCc5ccccc5)cc4)CC3)cc2)S1 [Example 74, 5-(4-{4-[(2S)-3-(4-Benzyloxy-phenoxy)-2-hydroxy-propylamino]-piperidin-1-}-benzyl)-thiazolidine-2,4-dione]
> 240 °C (dec.) | 1.08 | O=C1NC(=O)C(=Cc2ccc(N3CCC(NC[C@H](O)COc4cccc5[nH]c(=O)[nH]c45)CC3)cc2)S1 [Example 75, 5-(4-{4-[(2S)-2-Hydroxy-3-(2-oxo-2,3-dihydro-1H-benzoimidazol-4-yloxy)-propylamino]-piperidin-1-yl}-benzylidene)-thiazolidine-2,4-dione]
> 208 °C (dec.) | 0.94 | O=C1NC(=O)C(=Cc2ccc(N3CCC(NC[C@H](O)COc4ccc(O)cc4)CC3)cc2)S1 [Example 76, 5-(4-{4-[(2S)-2-Hydroxy-3-(4-hydroxy-phenoxy)-propylamino]-piperidin-1-yl}-benzylidene)-thiazolidine-2,4-dione]
> 150 °C (dec.) |  | CS(=O)(=O)Nc1cc(C(O)CNC2CCN(c3ccc(CC4SC(=O)NC4=O)cc3)CC2)ccc1O (stereo not drawn) [Example 78]
> 195 °C | 0.56 | O=C1NC(=O)C(Cc2ccc(N3CCC(NC[C@H](O)c4cccc(Cl)c4)CC3)cc2)S1 (stereo partly drawn) [Example 79, 5-(4-{4-[2-(3-Chloro-phenyl)-(2R)-2-hydroxyethylamino}-piperidin-1-yl}-benzyl)-thiazolidine-2,4-dione]
173 to 175 °C (dec.) | 1.1 | O=C1NC(=O)C(Cc2ccc(N3CCC(NC[C@H](O)COc4cccc5[nH]c(=O)[nH]c45)CC3)cc2)S1 (stereo partly drawn) [Example 80, 5-(4-{4-[(2S)-2-Hydroxy-3-(2-oxo-2,3-dihydro-1H-benzoimidazol-4-yloxy)-propylamino]-piperidin-1-yl}-benzyl)-thiazolidine-2,4-dione]
> 160 °C (dec.) | 0.89 | O=C1NC(=O)C(Cc2ccc(N3CCC(NC[C@H](O)COc4ccc(O)cc4)CC3)cc2)S1 (stereo partly drawn) [Example 81, 5-(4-{4-[(2S)-2-Hydroxy-3-(4-hydroxy-phenoxy)-propylamino]-piperidin-1-yl}-benzyl)-thiazolidine-2,4-dione]
208 to 210 °C | 0.68 | O=C1NC(=O)C(=Cc2ccc(N3CCC(NC[C@H](O)COc4ccccc4)CC3)cc2)S1 [Example 83, 5-{4-[4-((2S)-2-Hydroxy-3-phenoxy-propylamino)-piperidin-1-yl]-benzylidene}-thiazolidine-2,4-dione]
> 201 °C (dec.) | 0.94 | CS(=O)(=O)Nc1cc(C(O)CNC2CCN(c3ccc(C=C4NC(=O)NC4=O)cc3)CC2)ccc1O (stereo not drawn) [Example 85, N-[5-(2-{1-[4-(2,5-Dioxo-imidazolidin-4-ylidenemethyl)-phenyl]-piperidin-4-ylamino}-1-hydroxy-ethyl)-2-hydroxy-phenyl]-methanesulfonamide]
> 132 °C (dec.) | 0.69 | O=C1NC(=O)C(Cc2ccc(N3CCC(NCC(O)COc4cccc5[nH]c(=O)[nH]c45)CC3)cc2)N1 (stereo not drawn) [Example 86]
> 105 °C (dec.) | 1 | CS(=O)(=O)Nc1cc(C(O)CNC2CCN(c3ccc(CC4NC(=O)NC4=O)cc3)CC2)ccc1O (stereo not drawn) [Example 87, N-[5-(2-{1-[4-(2,5-Dioxo-imidazolidin-4-ylmethyl)-phenyl]-piperidin-4-ylamino}-1-hydroxy-ethyl)-2-hydroxy-phenyl]-methanesulfonamide]
> 155 °C (dec.) | 1.1 | N=C1NC(=O)C(Cc2ccc(N3CCC(NC[C@H](O)COc4cccc5[nH]c(=O)[nH]c45)CC3)cc2)S1 (stereo partly drawn) [Example 89, 4-((2S)-2-Hydroxy-3-{1-[4-(2-imino-4-oxo-thiazolidin-5-ylmethyl)-phenyl]-piperidin-4-ylamino}-propoxy)-1,3-dihydro-benzoimidazol-2-one]
> 175 °C (dec.) |  | CC(C)S(=O)(=O)Nc1cc([C@@H](O)CNC2CCN(c3ccc(CC4SC(=O)NC4=O)cc3)CC2)ccc1O (stereo partly drawn) [Example 94, (R)-Propane-2-sulfonic acid [5-(2-{1-[4-(2,4-dioxo-thiazolidin-5-ylmethyl)-phenyl]-piperidin-4-ylamino}-1-hydroxy-ethyl)-2-hydroxy-phenyl]-amide]
108 to 113 °C |  | O=C1NC(=O)C(Cc2ccc(N3CCC(NC[C@H](O)c4csc(C(F)(F)F)n4)CC3)cc2)S1 (stereo partly drawn) [Example 106, 5-{4-[4-({(2S)-2-Hydroxy-2-[2-(trifluoromethyl)-1,3-thiazol-4-yl]ethyl}amino)piperidine-1-yl]benzyl}-1,3-thiazolidine-2,4-dione]
110 °C |  | O=C1NC(=O)C(Cc2ccc(N3CCC(NC[C@H](O)c4cc(-c5ccc(Cl)c(Cl)c5)no4)CC3)cc2)S1 (stereo partly drawn) [Example 110, 5-{4-[4-({(2S)-2-[3-(3,4-Dichlorophenyl)isoxazol-5-yl]-2-hydroxyethyl}-amino)piperidine-1-yl}benzyl}-1,3-thiazole-2,4-dione]
87 °C (dec.) |  | Cc1ccc(OC[C@@H](O)CNC2CCN(c3ccc(CC4SC(=O)NC4=O)cc3)CC2)cn1 (stereo partly drawn) [Example 128, 5-(4-{4-[(2S)-2-Hydroxy-3-(6-methyl-pyridin-3-yloxy)-propylamino]-piperidin-1-yl}-benzyl)-thiazolidine-2,4-dione]
